This note sets out measurements from ChEMBL document CHEMBL1201862, “PubChem BioAssay data set” (2004).

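Interpolation was linear, between the two tested concentrations surrounding the appropriate level; five concentrations were tested over 48 hours in 96-well plates. At the GI50, growth is halved.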 Calls of active or inactive are those of the source. Rule as the data show it: active = GI50 up to about 1.1 µM and inactive = higher. Some results are limits rather than exact numbers.

Test systems include Hs-578T; PC-3; SF-539; SNB-19; MDA-MB-231; CAKI-1; SK-MEL-2; HL-60; Malme-3M; RPMI-8226; BT-549; SF-268; K562; SW-620; LOX IMVI; SN12C; HOP-92; ACHN; NCI/ADR-RES; SK-MEL-5.
What all share (assay): growth of human tumour cells (NCI), 48 h

For `Nc1sc2c(c1C(=O)c1ccc(Cl)c(Cl)c1)CCCC2`, the GI50 with Hs-578T is 70.8 µM (inactive); with PC-3 it was 44.1 µM (inactive); in the test with SF-539, 71.8 µM (inactive); with SNB-19 it was 64.1 µM (inactive); in the test on MDA-MB-231, > 100 µM (inactive); with CAKI-1 it was 56.8 µM (inactive). Also, the GI50 is 15 µM (inactive) in the test on SK-MEL-2; 22.6 µM (inactive) in the test on HL-60; 59.4 µM (inactive) with Malme-3M; 17.8 µM (inactive) in the test with RPMI-8226; 20.3 µM (inactive) in the test with BT-549; 45.8 µM (inactive) with SF-268. The GI50 in the test on K562 was 25.5 µM (inactive); with SW-620, 35.7 µM (inactive); with LOX IMVI, 40.3 µM (inactive); with SN12C, > 100 µM (inactive); in the test on HOP-92 it was 24.5 µM (inactive); in the test with ACHN it was 67.3 µM (inactive).
Take `CC1=C(SCc2ccccc2)C(=O)c2ccccc2C1=O`: the GI50 in the test on PC-3 was 17.6 µM (inactive); with SF-539 it was 14.8 µM (inactive); in the test with MDA-MB-231, 17.1 µM (inactive); in the test on CAKI-1, 13.4 µM (inactive); in the test on SK-MEL-2, 17.8 µM (inactive); with HL-60 it was 3.73 µM (inactive). The GI50 was 15.5 µM (inactive) in the test with Malme-3M; 2.42 µM (inactive) in the test on RPMI-8226; 21.7 µM (inactive) in the test with NCI/ADR-RES; 16.7 µM (inactive) in the test with BT-549; 14.4 µM (inactive) in the test on SK-MEL-5; 16.7 µM (inactive) in the test on SF-268. Also, the GI50 was 3.05 µM (inactive) in the test with K562; 19.9 µM (inactive) in the test with SW-620; 17.6 µM (inactive) in the test on LOX IMVI; 17.8 µM (inactive) in the test with SN12C; 4.72 µM (inactive) with HOP-92; 13.6 µM (inactive) in the test on ACHN.
Consider `COc1ccc(O[C@H](CO)C[C@@H]2COC(C)(C)O2)cc1`, for which the GI50 in the test with PC-3, in the test with SF-539, in the test with SNB-19, in the test on MDA-MB-231, in the test on CAKI-1 and with SK-MEL-2 was > 100 µM (inactive) each time. Further, the GI50 with Malme-3M, in the test with RPMI-8226, in the test on NCI/ADR-RES, with BT-549, in the test on SK-MEL-5 and in the test with SF-268 was > 100 µM (inactive) each time. For the same compound, the GI50 in the test with K562, in the test on SW-620, with LOX IMVI, in the test with SN12C and in the test on ACHN was > 100 µM (inactive) each time.
In the case of `NC(=O)C(=Cn1c(=S)[nH]c2ccc([N+](=O)[O-])cc21)C(N)=O`, the GI50 with SF-539, with SNB-19, in the test on MDA-MB-231, with CAKI-1, in the test with SK-MEL-2 and in the test with HL-60 was > 100 µM (inactive) each time. Further, the GI50 in the test with NCI/ADR-RES, in the test with BT-549, in the test with SK-MEL-5, in the test with SF-268, with SW-620 and with LOX IMVI was > 100 µM (inactive) each time. The GI50 in the test with SN12C, in the test on HOP-92 and in the test with ACHN was > 100 µM (inactive) in each case.
`C/C=C\C(CC(=O)OC)CC(=O)N(CCC1CN(S(=O)(=O)C(F)(F)F)c2ccccc21)Cc1ccc(OC)cc1OC` (stereo not drawn): the GI50 was 63 µM (inactive) with PC-3; > 100 µM (inactive) in the test with SF-539; > 100 µM (inactive) in the test on SNB-19; > 100 µM (inactive) with MDA-MB-231; > 100 µM (inactive) in the test with CAKI-1; > 100 µM (inactive) with SK-MEL-2. Besides, the GI50 was > 100 µM (inactive) in the test with Malme-3M; 61.7 µM (inactive) in the test on RPMI-8226; > 100 µM (inactive) in the test on NCI/ADR-RES; > 100 µM (inactive) in the test on BT-549; > 100 µM (inactive) with SK-MEL-5; > 100 µM (inactive) with SF-268. For the same compound, the GI50 in the test with K562 is 96.6 µM (inactive); in the test with SW-620, > 100 µM (inactive); with LOX IMVI, > 100 µM (inactive); with SN12C, > 100 µM (inactive); in the test on HOP-92, > 100 µM (inactive); in the test on ACHN, > 100 µM (inactive).
Take `CCOC(=O)[C@@H]1C2C(=C[C@H]3[C@H]1C(=O)N1CCCC[C@H]31)CCCN2C(=O)OCc1ccccc1` (stereo partly drawn): the GI50 in the test on PC-3 was 28.1 µM (inactive); in the test with SF-539, 43.6 µM (inactive); in the test on SNB-19, > 100 µM (inactive); in the test on MDA-MB-231, > 100 µM (inactive); with CAKI-1 it was 43.1 µM (inactive); with SK-MEL-2 it was 22.8 µM (inactive). For the same compound, the GI50 in the test on HL-60 is 20.8 µM (inactive); in the test on Malme-3M, 28.5 µM (inactive); in the test on RPMI-8226, 20.2 µM (inactive); with NCI/ADR-RES it was 26.2 µM (inactive); in the test on BT-549 it was 24.7 µM (inactive); in the test with SK-MEL-5, 31.6 µM (inactive). Further, the GI50 with SF-268 is 23.3 µM (inactive); with K562, 30.8 µM (inactive); in the test on SW-620, 52.2 µM (inactive); in the test with LOX IMVI it was 33.3 µM (inactive); in the test with SN12C, 47.5 µM (inactive); in the test on HOP-92, 76.4 µM (inactive). In the test on ACHN, the GI50 was 29.9 µM (inactive).
Turning to `CCC(=O)Nc1ccc(NC(C#N)c2cccc(Oc3ccccc3)c2)cc1` (stereo not drawn), the GI50 in the test on Hs-578T was 67.3 µM (inactive); in the test with PC-3, 63.4 µM (inactive); in the test on SF-539, 32.9 µM (inactive); with SNB-19 it was > 100 µM (inactive); in the test on CAKI-1, 54.6 µM (inactive); in the test on SK-MEL-2, 35 µM (inactive). Moreover, the GI50 in the test with HL-60 was 13.5 µM (inactive); with Malme-3M, 26.1 µM (inactive); with RPMI-8226, 23.1 µM (inactive); with NCI/ADR-RES, 28.2 µM (inactive); in the test with BT-549, 57.7 µM (inactive); in the test with SK-MEL-5 it was 22.6 µM (inactive). For the same compound, the GI50 in the test with SF-268 is 33.6 µM (inactive); with K562, 27.5 µM (inactive); with SW-620, 38.7 µM (inactive); in the test on LOX IMVI, 21.4 µM (inactive); in the test with SN12C, 51.8 µM (inactive); in the test with HOP-92, 34.8 µM (inactive). Further, the GI50 in the test with ACHN was 32.7 µM (inactive).
`CCOC(=O)Nc1cc2c(c(N)n1)N=C(c1ccc(OC)cc1)CN2`: the GI50 in the test on Hs-578T was 0.000494 µM (active); in the test on SNB-19, 0.000349 µM (active); in the test with CAKI-1, < 0.0001 µM (active); in the test on SK-MEL-2, < 0.01 µM (active); in the test on HL-60, 0.0015 µM (active); in the test on Malme-3M, 0.0101 µM (active). Also, the GI50 with RPMI-8226 was < 0.01 µM (active); with NCI/ADR-RES, 0.00126 µM (active); with BT-549, < 0.01 µM (active); with SK-MEL-5, < 0.0001 µM (active); in the test on SF-268, 0.00119 µM (active); with K562, < 0.01 µM (active). The GI50 is < 0.0001 µM (active) with SW-620; 0.000315 µM (active) in the test with LOX IMVI; 0.00436 µM (active) with SN12C; 0.508 µM (active) in the test on HOP-92; 0.00104 µM (active) in the test with ACHN.
As for `c1ccc(C[P+]2(c3ccccc3)c3ccccc3-c3ccccc32)cc1`, the GI50 with Hs-578T, in the test on PC-3, in the test with SF-539, in the test with SNB-19, with MDA-MB-231 and in the test on CAKI-1 was > 100 µM (inactive) throughout. Moreover, the GI50 in the test with HL-60, in the test with RPMI-8226, in the test with BT-549, in the test on SK-MEL-5, in the test on SF-268 and in the test on K562 was > 100 µM (inactive) in each case. The GI50 in the test with SW-620, in the test with LOX IMVI, in the test with SN12C and in the test on HOP-92 was > 100 µM (inactive) each time.
For the compound `CC(=N)OC1CC2CCC1(C)C2(C)C` (stereo not drawn), the GI50 in the test with Hs-578T, in the test on PC-3, in the test with SF-539, with MDA-MB-231, in the test with CAKI-1 and in the test on HL-60 was > 100 µM (inactive) throughout. Besides, the GI50 in the test with Malme-3M, in the test on RPMI-8226, in the test on BT-549, in the test on SK-MEL-5, in the test with SF-268 and in the test with K562 was > 100 µM (inactive) in each case. Besides, the GI50 in the test with SW-620, with LOX IMVI, in the test with SN12C, in the test with HOP-92 and in the test with ACHN was > 100 µM (inactive) in each case.
As for `Sc1ncnc2nc[nH]c12` [MERCAPTOPURINE ANHYDROUS], the GI50 with Hs-578T was 14.2 µM (inactive); in the test on PC-3, 4.39 µM (inactive); in the test on SF-539, 2.49 µM (inactive); in the test on SNB-19 it was 128 µM (inactive); with MDA-MB-231, 24.4 µM (inactive); in the test with CAKI-1, 3.21 µM (inactive). Besides, the GI50 with SK-MEL-2 is 5.97 µM (inactive); in the test with HL-60, 2.44 µM (inactive); in the test on Malme-3M, 3.66 µM (inactive); in the test with RPMI-8226, 1.76 µM (inactive); with NCI/ADR-RES it was 3.56 µM (inactive); in the test on SK-MEL-5 it was 8.36 µM (inactive). Further, the GI50 was 4.11 µM (inactive) in the test on SF-268; 0.351 µM (active) in the test with K562; 6.38 µM (inactive) in the test on SW-620; 0.383 µM (active) in the test on LOX IMVI; 23.8 µM (inactive) in the test with SN12C; 2.94 µM (inactive) in the test with HOP-92. The GI50 in the test on ACHN is 6.27 µM (inactive).
